Data: ChEMBL document CHEMBL4706513, “New insight into 20(S)-ginsenoside Rh2 against T-cell acute lymphoblastic leukemia associated with the gut microbiota and the immune system” (2020)
Calls of active or inactive are those of the source. The rule behind the calls is not given here.

Columns and labels:
[1] = system: Jurkat; test: Antitumour activity against human Jurkat cells xenografted in SCID/NOD mouse assessed as reduction of inactivity and messy hair at 40 mg/kg, po administered once a day for 3 weeks; type: functional, organism-based; settings: dose 40.0 mg/kg/day
[2] = system: Jurkat; test: Antitumour activity against human Jurkat cells xenografted in SCID/NOD mouse assessed as increase in body weight at 40 mg/kg, po administered once a day for 3 weeks; type: functional, organism-based; settings: dose 40.0 mg/kg/day
[3] = system: Jurkat; test: Antitumour activity against human Jurkat cells xenografted in SCID/NOD mouse assessed as proportion of CD3-positive cells in peripheral blood at 40 mg/kg, po administered once a day for 3 weeks by immunophenotyping based flow cytometry method (reference value: 18.81%); type: functional; settings: dose 40 mg/kg/day
[4] = system: Jurkat; test: Antitumour activity against human Jurkat cells xenografted in SCID/NOD mouse assessed as proportion of CD45-positive cells in peripheral blood at 40 mg/kg, po administered once a day for 3 weeks by immunophenotyping based flow cytometry method (reference value: 4.88%); type: functional; settings: dose 40 mg/kg/day
[5] = system: Jurkat; test: Antitumour activity against human Jurkat cells xenografted in SCID/NOD mouse assessed as decrease in expression of CD3 in bone marrow at 40 mg/kg, po administered once a day for 3 weeks by immunohistochemical staining method; type: functional, organism-based; settings: dose 40.0 mg/kg/day
[6] = system: Mus musculus; test: Antitumour activity against human Jurkat cells xenografted in SCID/NOD mouse assessed as decrease in expression of CD45 in bone marrow at 40 mg/kg, po administered once a day for 3 weeks by immunohistochemical staining method; type: functional, organism-based; settings: dose 40.0 mg/kg/day
[7] = system: Mus musculus; test: Inhibition of spleen infiltration in SCID/NOD mouse xenografted with human Jurkat cells assessed as reduction in spleen enlargement at 40 mg/kg, po administered once a day for 3 weeks; type: functional, organism-based; settings: dose 40.0 mg/kg/day
[8] = system: Mus musculus; test: Inhibition of spleen infiltration in SCID/NOD mouse xenografted with human Jurkat cells assessed as reduction in spleen index at 40 mg/kg, po administered once a day for 3 weeks; type: functional, organism-based; settings: dose 40.0 mg/kg/day
[9] = system: Mus musculus; test: Inhibition of spleen infiltration in SCID/NOD mouse xenografted with human Jurkat cells assessed as decrease in CD3 expression in spleen at 40 mg/kg, po once a day for 3 weeks by immunohistochemical staining method; type: functional, organism-based; settings: dose 40.0 mg/kg/day
[10] = system: Mus musculus; test: Inhibition of spleen infiltration in SCID/NOD mouse xenografted with human Jurkat cells assessed as decrease in CD45 expression in spleen at 40 mg/kg, po once a day for 3 weeks by immunohistochemical staining method; type: functional, organism-based; settings: dose 40.0 mg/kg/day
[11] = system: Mus musculus; test: In vivo inhibition of PI3K phosphorylation at Ser249 residue in spleen of SCID/NOD mouse xenografted with human Jurkat cells at 40 mg/kg, po administered once a day for 3 weeks by Western blot method; type: functional, organism-based; settings: dose 40.0 mg/kg/day
[12] = system: Mus musculus; test: In vivo inhibition of Akt phosphorylation at Ser473 residue in spleen of SCID/NOD mouse xenografted with human Jurkat cells at 40 mg/kg, po administered once a day for 3 weeks by Western blot method; type: functional, organism-based; settings: dose 40.0 mg/kg/day
[13] = system: Mus musculus; test: In vivo inhibition of mTOR phosphorylation at Ser2448 residue in spleen of SCID/NOD mouse xenografted with human Jurkat cells at 40 mg/kg, po administered once a day for 3 weeks by Western blot method; type: functional, organism-based; settings: dose 40.0 mg/kg/day
[14] = system: Mus musculus; test: Induction of immune response in SCID/NOD mouse xenografted with human Jurkat cells assessed as increase in IL-2 level in spleen at 40 mg/kg, po administered once a day for 3 weeks by ELISA reader method; type: functional, organism-based; settings: dose 40.0 mg/kg/day
[15] = system: Mus musculus; test: Induction of immune response in SCID/NOD mouse xenografted with human Jurkat cells assessed as increase in IFN-gamma level in spleen at 40 mg/kg, po administered once a day for 3 weeks by ELISA reader method; type: functional, organism-based; settings: dose 40.0 mg/kg/day
[16] = system: Mus musculus; test: Induction of immune response in SCID/NOD mouse xenografted with human Jurkat cells assessed as increase in NK cells in spleen at 40 mg/kg, po administered once a day for 3 weeks by ELISA reader method; type: functional, organism-based; settings: dose 40.0 mg/kg/day
[17] = system: Mus musculus; test: Induction of immune response in SCID/NOD mouse xenografted with human Jurkat cells assessed as decrease in IL-4 level in spleen at 40 mg/kg, po administered once a day for 3 weeks by ELISA reader method; type: functional, organism-based; settings: dose 40.0 mg/kg/day
[18] = system: Mus musculus; test: Induction of immune response in SCID/NOD mouse xenografted with human Jurkat cells assessed as decrease in IL-6 level in spleen at 40 mg/kg, po administered once a day for 3 weeks by ELISA reader method; type: functional, organism-based; settings: dose 40.0 mg/kg/day
[19] = system: Mus musculus; test: Induction of immune response in SCID/NOD mouse xenografted with human Jurkat cells assessed as decrease in IL-10 level in spleen at 40 mg/kg, po administered once a day for 3 weeks by ELISA reader method; type: functional, organism-based; settings: dose 40.0 mg/kg/day
[20] = system: Mus musculus; test: Induction of intestinal homeostasis in SCID/NOD mouse xenografted with human Jurkat cells assessed as decrease of enlargement of epithelial cells and infiltration of inflammatory cells in the colon at 40 mg/kg, po administered once a day for 3 weeks by Hand E staining based microscopic analysis; type: functional, organism-based; settings: dose 40.0 mg/kg/day
[21] = system: Mus musculus; test: Induction of intestinal homeostasis in SCID/NOD mouse xenografted with human Jurkat cells assessed as increase in goblet cells in the glands at 40 mg/kg, po administered once a day for 3 weeks by Hand E staining based microscopic analysis; type: functional, organism-based; settings: dose 40.0 mg/kg/day
[22] = system: Mus musculus; test: Induction of intestinal homeostasis in SCID/NOD mouse xenografted with human Jurkat cells assessed as upregulation of ZO-1 mRNA levels in colon at 40 mg/kg, po administered once a day for 3 weeks by real time RT-PCR analysis; type: functional, organism-based; settings: dose 40.0 mg/kg/day
[23] = system: Mus musculus; test: Induction of intestinal homeostasis in SCID/NOD mouse xenografted with human Jurkat cells assessed as upregulation of occludin mRNA levels in colon at 40 mg/kg, po administered once a day for 3 weeks by real time RT-PCR analysis; type: functional, organism-based; settings: dose 40.0 mg/kg/day
[24] = system: Mus musculus; test: Induction of intestinal homeostasis in SCID/NOD mouse xenografted with human Jurkat cells assessed as upregulation of claudin-1 mRNA levels in colon at 40 mg/kg, po administered once a day for 3 weeks by real time RT-PCR analysis; type: functional, organism-based; settings: dose 40.0 mg/kg/day

`CC(C)=CCC[C@](C)(O)[C@H]1CC[C@]2(C)[C@@H]1[C@H](O)C[C@@H]1[C@@]3(C)CC[C@H](O[C@@H]4O[C@H](CO)[C@@H](O)[C@H](O)[C@H]4O)C(C)(C)[C@@H]3CC[C@]12C` [GINSENOSIDE RH2] was tested, and the Activity [1] was “Active”, the Activity [2] was “Active” and the Activity [3] was 5.78%. The Activity [4] was 1.28%, the Activity [5] was “Active” and the Activity [6] was “Active”. For the same compound, the inhibition [7] was “Active”, the inhibition [8] was “Active” and the inhibition [9] was “Active”. For the same compound, the inhibition [10] was “Active”, the inhibition [11] was “Active” and the inhibition [12] was “Active”. For the same compound, the inhibition [13] was “Active”, the Activity [14] was “Active” and the Activity [15] was “Active”. The Activity [16] was “Active”, the Activity [17] was “Active” and the Activity [18] was “Active”. For the same compound, the Activity [19] was “Active”, the Activity [20] was “Active” and the Activity [21] was “Active”. The Activity [22] was “Active”, the Activity [23] was “Active” and the Activity [24] was “Active”.
